Consider 3 compounds from publication PMC3840712, “Enzymatic properties of Thermoanaerobacterium thermosaccharolyticum β-glucosidase fused to Clostridium cellulovorans cellulose binding domain and its application in hydrolysis of microcrystalline cellulose” (BMC Biotechnology, 2013).

Structures are written as SMILES.

Experiment [1] has as its target T1, BGL (Thermoanaerobacterium thermosaccharolyticum, UniProt D9TR57).
T1 construct: gene Tthe_1813
T1 sequence (D9TR57 1-444): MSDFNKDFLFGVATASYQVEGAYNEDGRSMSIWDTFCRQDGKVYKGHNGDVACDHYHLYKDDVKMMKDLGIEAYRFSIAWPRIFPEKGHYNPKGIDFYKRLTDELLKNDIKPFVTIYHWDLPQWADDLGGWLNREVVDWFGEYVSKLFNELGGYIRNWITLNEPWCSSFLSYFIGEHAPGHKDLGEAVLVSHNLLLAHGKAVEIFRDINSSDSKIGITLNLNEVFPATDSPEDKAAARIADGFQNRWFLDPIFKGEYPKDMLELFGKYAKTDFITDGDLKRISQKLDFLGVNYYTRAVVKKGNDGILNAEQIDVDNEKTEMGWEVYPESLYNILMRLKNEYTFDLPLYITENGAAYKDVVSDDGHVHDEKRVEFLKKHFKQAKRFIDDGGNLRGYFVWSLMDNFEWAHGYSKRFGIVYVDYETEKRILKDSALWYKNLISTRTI
Put plainly: initial rates, pNP release at […] nm. In kind it is biochemical. Particulars: 50 mM citrate pH 6.0, 65°C.

Experiment [2] deals with T2, BGL-CBD.
T2 construct: one polypeptide: BGL - PPP linker - C. cellulovorans CBD, pET-20b (NdeI/BamHI/XhoI; pET-BGL-Linker-CBD), Ni-NTA purified, E. coli JM109(DE3), about 69 kDa
Put plainly: initial rates, pNP release at […] nm. Type of experiment: biochemical, Thermoanaerobacterium thermosaccharolyticum. Particulars: 50 mM citrate pH 6.0, 65°C.

The target in experiment [3] is T1, BGL. In words: pNP release at […] nm, […] inhibition. Type of experiment: biochemical. The settings on record: pNPG as substrate, 50 mM citrate pH 6.0, 65°C; K i defined as glucose giving 50% inhibition.
The target in experiment [4] is T1, BGL. In words: initial rates, cellobiose hydrolysis. In kind it is biochemical. The settings on record: 50 mM citrate pH 6.0, 65°C.
The subject of experiment [5] is T2, BGL-CBD. Put plainly: initial rates, cellobiose hydrolysis. Type of experiment: biochemical, Thermoanaerobacterium thermosaccharolyticum. Particulars: 50 mM citrate pH 6.0, 65°C. The source says: initial rates, cellobiose hydrolysis on BGL-CBD

As a reminder, the Km is the concentration of substrate that gives half-maximal velocity. With `O=[N+]([O-])c1ccc(O[C@@H]2O[C@H](CO)[C@@H](O)[C@H](O)[C@H]2O)cc1` [p-nitrophenyl-β-D-glucopyranoside], the Km at BGL [1] amounted to 620 µM; in the experiment on BGL-CBD [2], 250 µM.

For `OC[C@H]1OC(O)[C@H](O)[C@@H](O)[C@@H]1O` (some centres unmarked) [glucose], the K i entry at BGL [3] is on record as “The BGL-CBD yielded approximately two times higher K i values for glucose than the BGL”.

Turning to `OC[C@H]1O[C@@H](O[C@H]2[C@H](O)[C@@H](O)C(O)O[C@@H]2CO)[C@H](O)[C@@H](O)[C@@H]1O` (some centres unmarked) [cellobiose], the Km came to 7900 µM at BGL [4] and 2620 µM in the experiment with BGL-CBD [5].
